# In ChEMBL document CHEMBL1201862, “PubChem BioAssay data set” (2004):
# The source made the active and inactive calls.
# Key:
# [1] = biological target: T1, Apoptotic protease-activating factor 1 (Homo sapiens, UniProt O14727); test: SAR analysis of small molecule Activators of Apaf-1 in a Fluorescent assay.; type: functional; conditions: read-out: EC50_Mean;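 further: caspase-3 cleavage of fluorogenic Rh110 DEVD substrate downstream of apoptosome activation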
# T1 sequence (O14727 whole entry): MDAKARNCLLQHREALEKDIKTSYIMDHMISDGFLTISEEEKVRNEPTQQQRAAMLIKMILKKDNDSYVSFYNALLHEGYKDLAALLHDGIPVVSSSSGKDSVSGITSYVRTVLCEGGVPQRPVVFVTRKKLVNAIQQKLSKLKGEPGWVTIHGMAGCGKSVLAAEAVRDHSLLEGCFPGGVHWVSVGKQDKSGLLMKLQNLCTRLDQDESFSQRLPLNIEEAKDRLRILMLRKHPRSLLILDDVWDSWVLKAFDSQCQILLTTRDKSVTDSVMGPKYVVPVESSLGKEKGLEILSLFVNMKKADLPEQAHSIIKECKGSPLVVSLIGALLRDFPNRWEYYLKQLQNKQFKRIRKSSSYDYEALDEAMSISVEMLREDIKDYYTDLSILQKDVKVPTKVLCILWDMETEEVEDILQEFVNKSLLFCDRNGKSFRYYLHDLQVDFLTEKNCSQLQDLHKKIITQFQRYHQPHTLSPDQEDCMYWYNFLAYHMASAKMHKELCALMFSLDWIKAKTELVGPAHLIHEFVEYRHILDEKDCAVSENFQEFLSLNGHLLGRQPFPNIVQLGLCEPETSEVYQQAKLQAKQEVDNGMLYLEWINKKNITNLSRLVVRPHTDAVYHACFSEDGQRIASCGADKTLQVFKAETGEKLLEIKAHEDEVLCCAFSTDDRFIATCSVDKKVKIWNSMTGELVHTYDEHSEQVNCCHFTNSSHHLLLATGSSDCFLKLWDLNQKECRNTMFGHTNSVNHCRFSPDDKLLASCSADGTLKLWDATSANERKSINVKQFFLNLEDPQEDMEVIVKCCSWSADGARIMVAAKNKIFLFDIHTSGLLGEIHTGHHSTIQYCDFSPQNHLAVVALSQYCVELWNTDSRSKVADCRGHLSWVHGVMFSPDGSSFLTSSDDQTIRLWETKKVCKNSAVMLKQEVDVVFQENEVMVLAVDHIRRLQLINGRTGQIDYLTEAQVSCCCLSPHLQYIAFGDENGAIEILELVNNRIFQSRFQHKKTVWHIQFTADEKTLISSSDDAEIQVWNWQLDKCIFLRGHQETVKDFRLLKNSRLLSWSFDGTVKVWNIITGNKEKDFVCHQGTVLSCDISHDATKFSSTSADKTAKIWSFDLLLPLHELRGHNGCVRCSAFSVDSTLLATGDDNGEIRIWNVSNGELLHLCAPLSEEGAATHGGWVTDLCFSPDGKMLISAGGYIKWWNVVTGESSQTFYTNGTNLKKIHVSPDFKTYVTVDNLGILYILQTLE
# [2] = biological target: DNA (cytosine-5)-methyltransferase 1 (Homo sapiens, UniProt P26358); test: inhibition of DNA methylation by DNMT1 – biochemical, fluorescent molecular beacon, confirmation (AID 602386); type: functional
# [3] = viability of uninfected HEp-2 cells – cell-based, HTS, cytotoxicity control for RSV inhibitor project, dose response (AID 2410); type: functional; conditions: human respiratory syncytial virus
# [4] = test system: Streptococcus sp. 'group A'; test: Streptococcus pyogenes SK(-)GAS viability under kanamycin – luminescence, BacTiterGlo, confirmation, counter-screen for streptokinase expression inhibitor project, dose response (AID 1900); type: functional, organism-based
# Streptococcus = test: GAS UMAA2166 growth inhibition – luminescence, BacTiterGlo, counter-screen for streptokinase expression inhibitor project, dose response (AID 1915); type: functional, organism-based;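 further: potency for reduction of bacterial viability or growth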
# [5] = biological target: FAD-linked sulfhydryl oxidase ALR (Homo sapiens, UniProt P55789); test: ALR-catalysed DTT oxidation blockers – biochemical, H2O2 detection, luminescence, cherry-pick, dose response (AID 493248)
# Streptokinase A = biological target: T2, Streptokinase A (Streptococcus pyogenes serotype M1, UniProt P10520); test: viability-normalized secreted streptokinase activity reduction – plasminogen activation absorbance, OD405, dose response (AID 1914); type: functional, Streptococcus pyogenes M1 GAS;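 further: secreted streptokinase activity via plasminogen activation per viability signal from cell pellet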
# T2 sequence (P10520 whole entry): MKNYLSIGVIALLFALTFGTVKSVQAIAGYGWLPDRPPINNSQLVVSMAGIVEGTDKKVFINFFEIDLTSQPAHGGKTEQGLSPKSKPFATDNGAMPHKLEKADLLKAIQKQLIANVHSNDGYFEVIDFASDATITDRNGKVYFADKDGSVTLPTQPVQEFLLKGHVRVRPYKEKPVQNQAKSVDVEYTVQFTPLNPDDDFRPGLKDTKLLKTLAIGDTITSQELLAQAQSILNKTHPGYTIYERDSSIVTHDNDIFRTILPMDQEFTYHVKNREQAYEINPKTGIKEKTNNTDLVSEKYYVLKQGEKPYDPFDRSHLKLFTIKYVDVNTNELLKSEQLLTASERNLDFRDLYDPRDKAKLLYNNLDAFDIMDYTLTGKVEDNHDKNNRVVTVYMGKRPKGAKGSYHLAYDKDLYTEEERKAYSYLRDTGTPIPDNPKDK
# Genome polyprotein = Genome polyprotein (dengue virus type 2, UniProt P29990); test: flavivirus cap methylation enzyme inhibition – biochemical, confirmation dose response, primary screen (AID 588689); type: functional
# Phospholipase A2 = Phospholipase A2 (Homo sapiens, UniProt P04054); type: functional;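 further: confirmatory dose-response counterscreen on phospholipase A2, testing hits that came from an ultra-high-throughput screen for ATG4B inhibitors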
# Cysteine protease ATG4B = biological target: T3, Cysteine protease ATG4B (Homo sapiens, UniProt Q9Y4P1); type: functional;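 further: Fluorescence-based dose-response confirmation assay measuring inhibition of ATG4B activity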
# T3 sequence (Q9Y4P1 whole entry): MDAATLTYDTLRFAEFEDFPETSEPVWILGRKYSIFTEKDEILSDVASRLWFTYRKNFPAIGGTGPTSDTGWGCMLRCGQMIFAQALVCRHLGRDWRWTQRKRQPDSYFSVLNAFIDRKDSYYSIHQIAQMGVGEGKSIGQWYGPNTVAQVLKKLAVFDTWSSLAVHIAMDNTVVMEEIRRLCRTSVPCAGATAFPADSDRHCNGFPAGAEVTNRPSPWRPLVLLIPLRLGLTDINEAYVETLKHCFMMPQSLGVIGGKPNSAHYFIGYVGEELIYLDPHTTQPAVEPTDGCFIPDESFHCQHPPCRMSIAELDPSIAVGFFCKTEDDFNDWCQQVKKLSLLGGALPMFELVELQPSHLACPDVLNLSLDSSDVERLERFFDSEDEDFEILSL
# [6] = biological target: Adenosylmethionine-8-amino-7-oxononanoate aminotransferase (Mycobacterium tuberculosis, UniProt P9WQ81); test: Mycobacterium tuberculosis BioA enzyme inhibitor Measured in Biochemical System Using Plate Reader - 2163-02_Inhibitor_Dose_CherryPick_Activity.; type: functional, Mycobacterium tuberculosis UT205
# [7] = biological target: T4, Corticotropin-releasing factor receptor 2/Corticotropin-releasing factor-binding protein (Homo sapiens, UniProt P24387+Q13324); test: Dose Response confirmation of uHTS hits for small molecule antagonists of the CRF-binding protein and CRF-R2 receptor complex.; type: functional; conditions: read-out: IC50_Mean
# T4 sequence (Q13324 whole entry): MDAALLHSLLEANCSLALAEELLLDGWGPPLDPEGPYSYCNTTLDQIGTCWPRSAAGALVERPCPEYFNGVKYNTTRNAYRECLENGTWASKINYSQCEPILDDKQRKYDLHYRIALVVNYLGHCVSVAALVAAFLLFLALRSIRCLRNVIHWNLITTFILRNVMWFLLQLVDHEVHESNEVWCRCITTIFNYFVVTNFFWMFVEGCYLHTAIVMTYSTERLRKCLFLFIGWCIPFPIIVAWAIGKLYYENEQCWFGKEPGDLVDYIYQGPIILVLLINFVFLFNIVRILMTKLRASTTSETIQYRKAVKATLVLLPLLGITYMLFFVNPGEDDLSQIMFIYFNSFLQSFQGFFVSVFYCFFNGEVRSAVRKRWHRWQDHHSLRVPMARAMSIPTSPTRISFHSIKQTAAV
# T4 sequence (P24387 whole entry): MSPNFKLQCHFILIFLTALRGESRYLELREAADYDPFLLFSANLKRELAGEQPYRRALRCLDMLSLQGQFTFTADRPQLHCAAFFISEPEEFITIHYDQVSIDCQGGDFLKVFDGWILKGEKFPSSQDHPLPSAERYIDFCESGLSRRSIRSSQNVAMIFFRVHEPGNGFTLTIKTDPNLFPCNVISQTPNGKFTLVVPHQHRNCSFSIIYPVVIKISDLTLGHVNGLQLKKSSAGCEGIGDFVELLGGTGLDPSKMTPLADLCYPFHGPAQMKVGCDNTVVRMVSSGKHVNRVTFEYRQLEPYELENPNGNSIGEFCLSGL
# [8] = biological target: T4, Corticotropin-releasing factor receptor 2/Corticotropin-releasing factor-binding protein; test: activators of CRF receptor 2 with binding protein – uHTS hits, confirmation (AID 602473); type: functional; conditions: read-out: EC50_Mean
# [9] = viability of HCT116 lacking mutant beta-catenin – cell-based, human colon tumor, dose response (AID 1045); type: functional;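 further: HCT116 colon tumor cells with beta catenin knocked out; cells exposed to compound for 60 hours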
# [10] = viability of PTEN-deleted HCT116 cells – cell-based, HCT116 PTEN knockout, dose response (AID 1047); type: functional;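 further: HCT116 colon tumor cells with PTEN knocked out; cells exposed to compound for 60 hours before readout; potency for loss of cell viability measured by luminescence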
# [11] = biological target: Induced myeloid leukemia cell differentiation protein Mcl-1 (Homo sapiens, UniProt Q07820); type: functional
# [12] = (§1) Counterscreen for antagonists of the orexin 1 receptor (OX1R; HCRTR1): Fluorescence-based cell-based high throughput dose response assay to identify antagonists of the parental CHO cell line. [Related pubchem assays (depositor defined):AID434989, AID435008, AID463079, AID485270, AID492963, AID492964, AID492965, AID493232, AID504699, AID504701]; type: functional
# Orexin receptor type 2 [13] = biological target: T5, Orexin receptor type 2 (Homo sapiens, UniProt O43614); test: Counterscreen assay for antagonists of the orexin 1 receptor (OX1R; HCRTR1): Homogeneous Time Resolved Fluorescence (HTRF)-based cell-based dose response assay for antagonists of the orexin 2 receptor (OX2R; HCRTR2), run by assay provider.; type: functional
# T5 sequence (O43614 whole entry): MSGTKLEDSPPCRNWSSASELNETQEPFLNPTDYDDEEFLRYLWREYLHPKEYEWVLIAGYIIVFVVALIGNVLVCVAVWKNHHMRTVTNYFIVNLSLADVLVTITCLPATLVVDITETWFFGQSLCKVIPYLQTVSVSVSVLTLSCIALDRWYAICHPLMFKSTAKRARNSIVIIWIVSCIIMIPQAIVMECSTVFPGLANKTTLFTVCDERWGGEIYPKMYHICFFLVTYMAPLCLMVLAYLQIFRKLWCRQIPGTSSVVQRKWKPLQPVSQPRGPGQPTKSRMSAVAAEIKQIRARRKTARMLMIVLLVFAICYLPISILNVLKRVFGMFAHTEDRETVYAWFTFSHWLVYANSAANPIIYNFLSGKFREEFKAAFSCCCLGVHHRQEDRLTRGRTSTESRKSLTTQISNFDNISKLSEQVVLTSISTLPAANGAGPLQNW
# [14] = biological target: T6, Orexin/Hypocretin receptor type 1 (Homo sapiens, UniProt O43613); test: Homogeneous Time Resolved Fluorescence (HTRF)-based cell-based high throughput dose response assay for antagonists of the orexin 1 receptor (OX1R; HCRTR1). [Related pubchem assays (depositor defined):AID434989, AID435008, AID463079, AID485270, AID492963, AID492964, AID492965, AID493232, AID504717, AID504718]; type: functional
# T6 sequence (O43613 whole entry): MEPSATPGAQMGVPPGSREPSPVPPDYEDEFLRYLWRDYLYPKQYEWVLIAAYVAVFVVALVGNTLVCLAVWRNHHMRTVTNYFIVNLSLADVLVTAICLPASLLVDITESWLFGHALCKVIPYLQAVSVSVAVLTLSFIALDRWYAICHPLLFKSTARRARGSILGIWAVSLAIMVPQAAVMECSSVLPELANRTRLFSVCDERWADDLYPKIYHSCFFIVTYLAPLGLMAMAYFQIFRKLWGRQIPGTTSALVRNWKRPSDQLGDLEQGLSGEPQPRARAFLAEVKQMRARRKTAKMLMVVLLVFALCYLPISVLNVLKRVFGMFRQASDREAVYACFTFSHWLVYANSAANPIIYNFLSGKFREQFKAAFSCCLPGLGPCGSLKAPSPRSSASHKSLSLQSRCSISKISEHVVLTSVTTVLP
# [15] = biological target: T6, Orexin/Hypocretin receptor type 1; test: Fluorescence-based cell-based high throughput dose response assay for antagonists of the orexin 1 receptor (OX1R; HCRTR1). [Related pubchem assays (depositor defined):AID434989, AID435008, AID463079, AID485270, AID492963, AID492964, AID492965, AID493232, AID504717, AID504718]; type: functional
# CHO-K1 = test: as §1, with “Homogeneous time resolved fluorescence (HTRF)-based” for “Fluorescence-based”, “cell-based” for “cell-based high throughput”, “CHO-K1” for “CHO”; type: functional; conditions: Cricetulus griseus;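 further: potency for inhibition of ATP-stimulated IP1 production as antagonists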
# Orexin receptor type 2 [16] = biological target: T5, Orexin receptor type 2; test: Counterscreen assay for antagonists of the orexin 1 receptor (OX1R; HCRTR1): Fluorescence-based cell-based dose response assay for antagonists of the orexin 2 receptor (OX2R; HCRTR2), run by assay provider.; type: functional
# Sequence of Adenosylmethionine-8-amino-7-oxononanoate aminotransferase (P9WQ81 whole entry): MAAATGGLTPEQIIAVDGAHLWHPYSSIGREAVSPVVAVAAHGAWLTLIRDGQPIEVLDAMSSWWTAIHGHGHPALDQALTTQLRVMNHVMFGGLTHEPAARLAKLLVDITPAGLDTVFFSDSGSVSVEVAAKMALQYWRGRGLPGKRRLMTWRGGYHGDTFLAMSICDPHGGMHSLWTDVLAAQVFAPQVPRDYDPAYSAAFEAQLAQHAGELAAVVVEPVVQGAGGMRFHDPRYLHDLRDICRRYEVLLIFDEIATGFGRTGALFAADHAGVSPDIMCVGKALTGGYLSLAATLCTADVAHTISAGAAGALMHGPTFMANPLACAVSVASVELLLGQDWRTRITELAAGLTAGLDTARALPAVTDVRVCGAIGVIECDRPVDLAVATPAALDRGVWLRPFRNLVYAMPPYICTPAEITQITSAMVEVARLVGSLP
# Sequence of Phospholipase A2 (P04054 whole entry): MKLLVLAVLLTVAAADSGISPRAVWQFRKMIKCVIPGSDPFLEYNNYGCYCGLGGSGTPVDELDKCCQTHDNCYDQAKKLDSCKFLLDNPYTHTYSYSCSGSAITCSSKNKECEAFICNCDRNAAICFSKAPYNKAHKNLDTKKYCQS
# Sequence of FAD-linked sulfhydryl oxidase ALR (P55789 whole entry): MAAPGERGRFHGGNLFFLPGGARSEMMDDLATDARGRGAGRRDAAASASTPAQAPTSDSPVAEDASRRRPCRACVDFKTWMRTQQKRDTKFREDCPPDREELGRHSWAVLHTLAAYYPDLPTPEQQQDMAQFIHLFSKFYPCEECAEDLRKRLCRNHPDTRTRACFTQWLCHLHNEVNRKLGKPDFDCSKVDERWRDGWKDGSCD
# Sequence of Induced myeloid leukemia cell differentiation protein Mcl-1 (Q07820 whole entry): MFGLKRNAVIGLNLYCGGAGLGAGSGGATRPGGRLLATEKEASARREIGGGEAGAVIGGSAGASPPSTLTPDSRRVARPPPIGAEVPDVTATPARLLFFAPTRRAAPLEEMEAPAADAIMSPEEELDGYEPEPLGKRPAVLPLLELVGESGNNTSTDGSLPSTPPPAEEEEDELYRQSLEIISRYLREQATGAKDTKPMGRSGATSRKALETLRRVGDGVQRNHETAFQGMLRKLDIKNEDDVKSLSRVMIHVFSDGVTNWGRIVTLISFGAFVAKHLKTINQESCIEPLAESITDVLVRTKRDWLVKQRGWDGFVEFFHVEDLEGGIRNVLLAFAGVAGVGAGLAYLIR
# Sequence of Genome polyprotein (P29990 2492-3391 limits assumed): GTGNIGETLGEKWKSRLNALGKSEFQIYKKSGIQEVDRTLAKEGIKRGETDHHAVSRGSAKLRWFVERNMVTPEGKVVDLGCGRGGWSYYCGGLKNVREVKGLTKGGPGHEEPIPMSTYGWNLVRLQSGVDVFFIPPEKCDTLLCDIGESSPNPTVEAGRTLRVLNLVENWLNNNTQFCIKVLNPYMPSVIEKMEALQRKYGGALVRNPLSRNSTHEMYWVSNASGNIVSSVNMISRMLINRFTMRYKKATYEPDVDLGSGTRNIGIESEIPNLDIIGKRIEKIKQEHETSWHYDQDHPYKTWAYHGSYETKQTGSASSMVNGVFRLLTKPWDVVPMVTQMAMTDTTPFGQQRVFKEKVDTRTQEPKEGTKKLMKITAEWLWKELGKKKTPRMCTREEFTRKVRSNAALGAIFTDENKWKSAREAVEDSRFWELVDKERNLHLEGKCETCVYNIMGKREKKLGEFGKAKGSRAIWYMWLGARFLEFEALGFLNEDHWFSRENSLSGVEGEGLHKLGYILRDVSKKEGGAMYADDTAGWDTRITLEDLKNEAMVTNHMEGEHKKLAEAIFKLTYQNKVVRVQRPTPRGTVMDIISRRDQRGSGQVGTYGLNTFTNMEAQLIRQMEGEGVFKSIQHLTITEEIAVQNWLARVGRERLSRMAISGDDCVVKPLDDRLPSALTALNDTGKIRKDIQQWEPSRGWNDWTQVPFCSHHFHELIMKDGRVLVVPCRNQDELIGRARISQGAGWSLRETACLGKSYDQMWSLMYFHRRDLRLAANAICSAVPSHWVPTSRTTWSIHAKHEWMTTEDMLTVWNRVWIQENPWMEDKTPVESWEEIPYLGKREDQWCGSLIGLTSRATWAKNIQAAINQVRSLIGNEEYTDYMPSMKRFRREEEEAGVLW
# Sequence of DNA (cytosine-5)-methyltransferase 1 (P26358 whole entry): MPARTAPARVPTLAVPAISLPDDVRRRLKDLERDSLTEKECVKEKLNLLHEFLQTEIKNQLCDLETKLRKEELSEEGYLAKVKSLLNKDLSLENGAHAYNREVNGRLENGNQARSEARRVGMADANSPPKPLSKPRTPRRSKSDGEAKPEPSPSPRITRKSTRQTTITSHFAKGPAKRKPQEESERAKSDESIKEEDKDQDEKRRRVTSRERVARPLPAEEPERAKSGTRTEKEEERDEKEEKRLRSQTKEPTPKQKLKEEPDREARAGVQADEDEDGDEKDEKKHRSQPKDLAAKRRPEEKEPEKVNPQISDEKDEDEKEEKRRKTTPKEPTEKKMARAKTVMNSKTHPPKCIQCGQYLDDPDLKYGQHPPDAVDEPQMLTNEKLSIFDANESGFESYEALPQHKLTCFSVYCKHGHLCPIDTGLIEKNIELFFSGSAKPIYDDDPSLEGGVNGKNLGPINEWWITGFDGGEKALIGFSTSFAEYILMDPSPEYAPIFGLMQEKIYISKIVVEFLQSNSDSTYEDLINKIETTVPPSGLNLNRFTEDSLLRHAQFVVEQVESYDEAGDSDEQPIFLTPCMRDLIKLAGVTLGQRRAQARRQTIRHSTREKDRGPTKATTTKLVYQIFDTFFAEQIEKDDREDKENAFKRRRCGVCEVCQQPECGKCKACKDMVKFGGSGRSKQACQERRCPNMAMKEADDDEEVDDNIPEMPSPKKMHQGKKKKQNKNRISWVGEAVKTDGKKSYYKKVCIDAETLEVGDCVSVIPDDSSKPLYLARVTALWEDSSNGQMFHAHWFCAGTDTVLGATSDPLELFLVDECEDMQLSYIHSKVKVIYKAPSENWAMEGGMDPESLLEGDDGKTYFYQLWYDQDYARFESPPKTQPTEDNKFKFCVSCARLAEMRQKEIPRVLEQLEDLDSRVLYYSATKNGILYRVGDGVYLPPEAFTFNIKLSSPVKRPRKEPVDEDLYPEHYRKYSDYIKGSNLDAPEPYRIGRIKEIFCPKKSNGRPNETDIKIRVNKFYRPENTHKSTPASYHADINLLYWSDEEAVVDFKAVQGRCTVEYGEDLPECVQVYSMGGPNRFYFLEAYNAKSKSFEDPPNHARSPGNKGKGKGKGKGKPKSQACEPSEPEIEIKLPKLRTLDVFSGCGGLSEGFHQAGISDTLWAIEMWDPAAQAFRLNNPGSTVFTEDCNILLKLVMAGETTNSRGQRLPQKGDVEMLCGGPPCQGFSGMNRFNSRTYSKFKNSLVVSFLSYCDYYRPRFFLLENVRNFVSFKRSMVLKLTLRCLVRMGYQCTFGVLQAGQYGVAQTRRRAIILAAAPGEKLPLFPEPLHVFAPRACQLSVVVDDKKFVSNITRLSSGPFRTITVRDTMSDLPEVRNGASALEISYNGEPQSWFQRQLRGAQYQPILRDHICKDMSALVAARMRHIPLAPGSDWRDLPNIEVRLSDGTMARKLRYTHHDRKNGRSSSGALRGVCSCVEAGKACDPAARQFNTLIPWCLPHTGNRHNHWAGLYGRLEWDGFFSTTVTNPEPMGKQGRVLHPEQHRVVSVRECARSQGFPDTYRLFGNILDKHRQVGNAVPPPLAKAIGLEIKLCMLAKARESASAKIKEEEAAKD
compound,measurement,setting,value
O=C(C1CC(c2ccc(F)cc2)=NO1)N1CCCc2ccccc21 (configuration not stated),EC50,[1],> 100 µM (inactive)
O=C(O)CN1C(=O)/C(=C\c2cc(Br)ccc2OCc2ccc(Cl)cc2)SC1=S,IC50,[2],7.36 µM (active)
same,CC50,[3],14.9 µM (active)
same,EC50,[4],1.58 µM (active)
same,EC50,Streptococcus,3.08 µM (active)
same,AC50,[5],1.58 µM (active)
same,EC50,Streptokinase A,> 50 µM (not active)
same,IC50,Genome polyprotein,24.8 µM (active)
same,IC50,Phospholipase A2,4.68 µM (active)
same,IC50,Cysteine protease ATG4B,7.13 µM (active)
O=C(Nc1ccc2snnc2c1)N1CCN(c2ccccc2)CC1,AC50,[5],0.913 µM (active)
same,AC50,[6],0.0986 µM (active)
COc1ccc(/C=C2\CCc3ccccc3C2=O)c(OC)c1OC,IC50,[7],> 47.1 µM (inactive)
same,EC50,[8],> 53 µM (inactive)
same,IC50,Phospholipase A2,31.7 µM (inactive)
same,IC50,Cysteine protease ATG4B,38.6 µM (inactive)
Cc1nc(-c2cccnc2)sc1C(=O)Nc1cccc(C(F)(F)F)c1,EC50,[9],26.8 µM (active)
same,EC50,[10],15.7 µM (active)
same,AC50,[6],3.76 µM (active)
Sc1nnc(-c2cc(-c3ccccc3)[nH]n2)n1/N=C/c1c2ccccc2cc2ccccc12,IC50,[11],6.05 µM (not active)
same,IC50,[12],> 49.8 µM (inactive)
same,IC50,Orexin receptor type 2 [13],> 50 µM (inactive)
same,IC50,[14],0.585 µM (active)
same,IC50,[15],23.7 µM (inactive)
same,IC50,CHO-K1,> 66.2 µM (inactive)
same,IC50,Orexin receptor type 2 [16],> 88.8 µM (inactive)
COc1ccc(N2C(=O)CC3(CC(c4ccccc4F)=NO3)C2=O)cc1 (configuration not stated),EC50,[1],> 100 µM (inactive)
